Active and inactive are the calls of the source. The calls are words filed in the database; no cut-off is given here.
What was measured:
Hepatocyte [1] = experiment: Inhibition of P-glycoprotein in rat primary hepatocytes assessed as increase in intracellular rhodamine 123 accumulation after 3 hrs; type: cell-based
Hepatocyte [2] = experiment: Inhibition of P-glycoprotein in rat primary hepatocytes assessed as increase in intracellular rhodamine 123 accumulation at 100 uM after 3 hrs relative to control; type: cell-based
Hepatocyte [3] = settings: Rattus norvegicus, 10 to 50 uM
Hepatocyte [4] = experiment: Inhibition of P-glycoprotein in rat primary hepatocytes assessed as increase in intracellular rhodamine 123 accumulation at 100 uM after 3 hrs; type: cell-based

For `COc1ccc(-n2nnc(CCC(O)CN3c4ccccc4Sc4ccccc43)n2)cc1` (stereo not given), which inhibition (Hepatocyte [1]) is on record?
Its inhibition is “Dose-dependent effect”.

Which inhibition (Hepatocyte [2]) does the source give for `COc1ccc(-n2nnc(CCCCN3c4ccccc4Sc4ccccc43)n2)cc1` here?
The inhibition was 20%.

For `COc1ccc(CCN(C)CCCC(C#N)(c2ccc(OC)c(OC)c2)C(C)C)cc1OC` (stereo not given), which inhibition (Hepatocyte [3]) is on record?
The inhibition was “Active”.

For `COc1ccc(-n2nnc(/C=C\C=C\N3c4ccccc4Sc4ccccc43)n2)cc1`, which inhibition (Hepatocyte [4]) is on record?
The inhibition was “inactive”.

With `COc1ccc(-n2nnc(CCCN3c4ccccc4Sc4ccccc43)n2)cc1` as the molecule, how does the inhibition (Hepatocyte [4]) read?
Its inhibition is “inactive”.
